In one assay the target is T1, KRAS (WT) (Homo sapiens, UniProt P01116).
T1 construct: Biotinylated KRAS protein amino acids 1-169 (produced at Erasca); made in house
As to the kind of experiment: In-vitro RAS-RAF binding assay (RRB), HTRF/FRET. Type of assay: biochemical. Conditions: Table 2, average of multiple runs of each compound; read-out: Inhibition of RAS-RAF Binding (in-vitro) KRAS (WT) IC50. An outline of the steps: (§1)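 Compounds preincubated with terbium-labelled biotinylated KRAS (aa 1-169, 30 nM) before 60 min SOS1-catalysed exchange to GTPgS. Binding of the d2-labelled cRAF RBD (30 nM) is read as FRET at equilibrium in duplicate. Buffer: 50 mM HEPES pH 7.5, 100 mM NaCl, 1 mM MgCl2, 1 mM DTT.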

Assay [1] addresses T2, KRas G12D fused to HiBiT peptide (Homo sapiens, UniProt P01116, G12D).
T2 construct: endogenous in cells; host or cells: AsPC-1 HiBiT knock-in single clone (Cas9 RNP + ssODN)
As to the kind of experiment: ASPC-1 HiBit assay to determine G12D degradation. Type of assay: cell-based. Conditions: AsPC-1 HiBiT cells, 24-hour incubation; read-out: ASPC-1 HiBit DC50 (C). An outline of the steps: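 Homozygous AsPC-1 clone with N-terminal HiBiT knock-in on endogenous KRas G12D, 24 h compound exposure, top dose 10 μM, 3-fold, 10 points, 1% DMSO. Lytic HiBiT luminescence normalised to DMSO and inhibitor controls gives % degradation; DC50 from 4-parameter fit after hook-effect points removed.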

The target of a further assay is KRAS G12D (Homo sapiens, UniProt P01116, G12D). Nature of the assay: In-vitro RAS-RAF binding assay (RRB), HTRF/FRET. It is filed as biochemical. To be noted: Table 2, average of multiple runs of each compound; read-out: Inhibition of RAS-RAF Binding (in-vitro) KRAS (G12D) IC50. On the set-up: Biotinylated KRAS protein amino acids 1-169 (produced at Erasca); made in house. An outline of the steps:
as §1

In patent publication US20240293558A1, “KRAS INHIBITOR CONJUGATES” (Erasca, Inc., priority 2021, published 2024) one finds IC50 and DC50 data, which are given here for two compounds.

T1 sequence (P01116 1-169 isoform P01116-2): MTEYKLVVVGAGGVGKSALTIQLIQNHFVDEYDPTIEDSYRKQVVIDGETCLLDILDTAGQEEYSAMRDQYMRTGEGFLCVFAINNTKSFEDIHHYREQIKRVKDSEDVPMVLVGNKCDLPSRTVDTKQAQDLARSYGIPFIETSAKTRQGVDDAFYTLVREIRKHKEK
Chain of KRAS G12D (P01116 1-169 isoform P01116-2 G12D): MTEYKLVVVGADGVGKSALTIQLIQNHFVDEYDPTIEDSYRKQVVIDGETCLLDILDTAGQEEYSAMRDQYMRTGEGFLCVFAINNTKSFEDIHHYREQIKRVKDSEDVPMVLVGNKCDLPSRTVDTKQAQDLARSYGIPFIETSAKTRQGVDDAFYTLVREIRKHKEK
T2 sequence (P01116 1-188 isoform P01116-2 G12D): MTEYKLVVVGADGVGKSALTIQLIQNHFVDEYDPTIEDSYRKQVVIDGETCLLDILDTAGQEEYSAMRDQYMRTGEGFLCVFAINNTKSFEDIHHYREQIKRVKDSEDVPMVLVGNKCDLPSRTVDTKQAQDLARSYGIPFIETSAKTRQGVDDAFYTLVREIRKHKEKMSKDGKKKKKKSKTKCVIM

As to `C#Cc1c(F)ccc2cc(O)cc(-c3ncc4c(N5CC6CCC(C5)N6)nc(OCCN5CCC(Oc6cc([C@H](C(=O)N7C[C@H](O)C[C@H]7C(=O)N[C@@H](C)c7ccc(-c8c(F)cccc8F)cc7)C(C)C)on6)CC5)nc4c3F)c12` [Example 100, (2S,4R)-1-((2R)-2-(3-((1-(2-((4-(3,8-diazabicyclo[3.2.1]octan-3-yl)-7-(8-ethynyl-7-fluoro-3-hydroxynaphthalen-1-yl)-8-fluoropyrido[4,3-d]pyrimidin-2-yl)oxy)ethyl)piperidin-4-yl)oxy)isoxazol-5-yl)-3-methylbutanoyl)-N—((S)-1-(2′,6′-difluoro-[1,1′-biphenyl]-4-yl)ethyl)-4-hydroxypyrrolidine-2-carboxamide], the IC50 on KRAS (WT) was 2070 nM; on KRAS G12D it was 14 nM. The DC50 in assay [1] worked out at 197 nM.
In the same order, the values of `C[C@H](NC(=O)[C@@H]1C[C@@H](O)CN1C(=O)[C@@H](NC(=O)CCOCCCN1CCC[C@H]1COc1nc(N2CC3CCC(C2)N3)c2cc(C(F)(F)F)c(-c3ccc(F)c4sc(N)c(C#N)c34)c(F)c2n1)C(C)(C)C)c1ccc(-c2c(F)cc(F)cc2F)cc1` [Example 92, (2S,4R)-1-((2S)-2-(3-(3-((2S)-2-((((7S)-7-(2-amino-3-cyano-7-fluorobenzo[b]thiophen-4-yl)-4-(3,8-diazabicyclo[3.2.1]octan-3-yl)-8-fluoro-6-(trifluoromethyl)quinazolin-2-yl)oxy)methyl)pyrrolidin-1-yl)propoxy)propanamido)-3,3-dimethylbutanoyl)-4-hydroxy-N—((S)-1-(2′,4′,6′-trifluoro-[1,1′-biphenyl]-4-yl)ethyl)pyrrolidine-2-carboxamide] are 52 nM, 8.9 nM and 49 nM.
